Measurements from ChEMBL document CHEMBL1201862, “PubChem BioAssay data set” (2004).
Calls of active or inactive are those of the source.

What was measured:
[1] = target: T1, Microphthalmia-associated transcription factor (Homo sapiens, UniProt O75030); experiment: reducers of TRPM1 reporter luminescence, concentration series – cell-based, SK-MEL-5, cherry-picked, set 3, MITF inhibitor project, dose response (AID 493073); format: functional;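 further: SK-MEL-5 melanoma cells with luciferase driven by the MITF target TRPM1 promoter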
T1 sequence (O75030 whole entry): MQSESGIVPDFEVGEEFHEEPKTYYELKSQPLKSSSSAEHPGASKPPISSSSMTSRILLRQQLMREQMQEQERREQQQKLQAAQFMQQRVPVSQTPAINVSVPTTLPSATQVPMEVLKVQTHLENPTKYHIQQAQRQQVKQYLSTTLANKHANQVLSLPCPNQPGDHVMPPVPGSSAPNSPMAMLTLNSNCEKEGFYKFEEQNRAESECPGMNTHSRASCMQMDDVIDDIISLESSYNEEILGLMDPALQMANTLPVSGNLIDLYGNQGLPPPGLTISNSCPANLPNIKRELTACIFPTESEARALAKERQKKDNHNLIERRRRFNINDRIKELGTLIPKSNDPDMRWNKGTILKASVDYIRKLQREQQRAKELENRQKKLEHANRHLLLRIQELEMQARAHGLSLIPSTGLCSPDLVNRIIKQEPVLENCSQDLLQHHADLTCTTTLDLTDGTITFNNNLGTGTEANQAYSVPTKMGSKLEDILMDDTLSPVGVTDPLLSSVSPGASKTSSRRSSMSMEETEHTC

[2] = target: T2, Sentrin-specific protease 7 (Homo sapiens, UniProt Q9BQF6); format: functional;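 further: Luminescence-based dose-response confirmation of ultra-high-throughput screening hits, measuring inhibition of SENP7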
T2 sequence (Q9BQF6 whole entry): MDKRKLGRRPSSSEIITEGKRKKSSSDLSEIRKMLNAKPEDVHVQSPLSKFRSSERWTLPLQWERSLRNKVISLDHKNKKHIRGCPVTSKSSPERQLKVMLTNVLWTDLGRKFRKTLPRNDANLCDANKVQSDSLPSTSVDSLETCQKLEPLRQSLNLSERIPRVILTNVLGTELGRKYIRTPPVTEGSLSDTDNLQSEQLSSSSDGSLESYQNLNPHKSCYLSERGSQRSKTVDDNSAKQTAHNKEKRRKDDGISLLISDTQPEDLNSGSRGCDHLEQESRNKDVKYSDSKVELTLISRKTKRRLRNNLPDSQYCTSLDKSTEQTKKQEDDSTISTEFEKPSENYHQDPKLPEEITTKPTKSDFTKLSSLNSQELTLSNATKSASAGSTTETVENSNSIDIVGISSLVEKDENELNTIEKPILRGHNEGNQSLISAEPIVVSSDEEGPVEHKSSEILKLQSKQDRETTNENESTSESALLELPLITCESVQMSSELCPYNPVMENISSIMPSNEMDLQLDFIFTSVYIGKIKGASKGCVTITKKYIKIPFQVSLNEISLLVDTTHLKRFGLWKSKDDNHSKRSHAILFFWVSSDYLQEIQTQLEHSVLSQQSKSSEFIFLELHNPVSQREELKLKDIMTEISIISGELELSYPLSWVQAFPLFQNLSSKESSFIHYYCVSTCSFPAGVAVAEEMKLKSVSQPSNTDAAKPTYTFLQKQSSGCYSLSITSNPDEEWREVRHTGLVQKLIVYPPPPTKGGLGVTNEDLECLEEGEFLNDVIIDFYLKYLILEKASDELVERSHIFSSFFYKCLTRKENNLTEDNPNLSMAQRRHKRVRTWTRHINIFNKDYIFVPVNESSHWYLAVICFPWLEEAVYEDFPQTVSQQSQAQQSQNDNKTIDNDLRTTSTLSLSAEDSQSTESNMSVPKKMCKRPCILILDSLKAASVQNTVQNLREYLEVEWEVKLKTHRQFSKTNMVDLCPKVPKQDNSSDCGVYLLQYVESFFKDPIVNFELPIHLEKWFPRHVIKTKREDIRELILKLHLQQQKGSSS

[3] = test system: A-375; experiment: proliferation inhibition in MITF-low A375 cells – cell-based, cherry-pick samples, set 2, counter-screen for MITF modulator project, dose response (AID 540335); format: functional; conditions: Homo sapiens
[4] = HEK-293T viability loss, compound-treated – cell-based, uHTS hits, cytotoxicity control for B/T-cell NF-kB inhibitor project, dose response (AID 489019); format: functional;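 further: IC50 reflects cytotoxicity as loss of cell viability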
[5] = target: T3, Sentrin-specific protease 8 (Homo sapiens, UniProt Q96LD8); format: functional;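 further: luminescence read-out of SENP8 inhibition, dose-response confirmation following an ultra-high-throughput screen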
T3 sequence (Q96LD8 whole entry): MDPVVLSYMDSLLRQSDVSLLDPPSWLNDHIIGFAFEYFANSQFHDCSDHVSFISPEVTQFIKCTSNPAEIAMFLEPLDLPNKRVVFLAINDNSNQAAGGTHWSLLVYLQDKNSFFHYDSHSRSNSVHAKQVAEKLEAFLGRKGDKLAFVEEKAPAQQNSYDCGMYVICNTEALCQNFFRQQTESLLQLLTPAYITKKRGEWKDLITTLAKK

[6] = target: Luciferin 4-monooxygenase (Photinus pyralis, UniProt P08659); experiment: Counter Screen for Luciferase-based Assay Positives. [Related pubchem assays: 620, 618, 411 ]
Sequence of Luciferin 4-monooxygenase (P08659 whole entry): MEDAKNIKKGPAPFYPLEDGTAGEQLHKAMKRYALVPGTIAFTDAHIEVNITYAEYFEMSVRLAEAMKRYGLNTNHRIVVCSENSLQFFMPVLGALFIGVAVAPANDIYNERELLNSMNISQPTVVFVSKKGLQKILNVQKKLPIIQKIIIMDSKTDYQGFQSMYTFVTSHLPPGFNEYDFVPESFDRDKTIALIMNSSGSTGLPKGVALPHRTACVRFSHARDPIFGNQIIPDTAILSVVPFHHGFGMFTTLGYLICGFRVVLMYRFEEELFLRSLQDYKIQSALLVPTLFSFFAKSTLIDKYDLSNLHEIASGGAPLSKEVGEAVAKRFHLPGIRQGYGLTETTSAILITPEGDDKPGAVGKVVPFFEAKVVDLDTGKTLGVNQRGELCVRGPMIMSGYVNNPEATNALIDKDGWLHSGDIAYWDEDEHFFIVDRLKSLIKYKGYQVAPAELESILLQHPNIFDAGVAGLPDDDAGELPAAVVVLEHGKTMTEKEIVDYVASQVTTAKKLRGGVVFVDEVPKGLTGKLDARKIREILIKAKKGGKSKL

[7] = target: T4, Protein RecA (Mycobacterium tuberculosis, UniProt P9WHJ3); experiment: Fluorescence Cell-Free Homogeneous Dose Retest to Identify Inhibitors of RecA-Intein Splicing Activity. [Related pubchem assays (depositor defined):AID2097, AID2223, AID489010, AID492950]; format: functional
T4 sequence (P9WHJ3 whole entry): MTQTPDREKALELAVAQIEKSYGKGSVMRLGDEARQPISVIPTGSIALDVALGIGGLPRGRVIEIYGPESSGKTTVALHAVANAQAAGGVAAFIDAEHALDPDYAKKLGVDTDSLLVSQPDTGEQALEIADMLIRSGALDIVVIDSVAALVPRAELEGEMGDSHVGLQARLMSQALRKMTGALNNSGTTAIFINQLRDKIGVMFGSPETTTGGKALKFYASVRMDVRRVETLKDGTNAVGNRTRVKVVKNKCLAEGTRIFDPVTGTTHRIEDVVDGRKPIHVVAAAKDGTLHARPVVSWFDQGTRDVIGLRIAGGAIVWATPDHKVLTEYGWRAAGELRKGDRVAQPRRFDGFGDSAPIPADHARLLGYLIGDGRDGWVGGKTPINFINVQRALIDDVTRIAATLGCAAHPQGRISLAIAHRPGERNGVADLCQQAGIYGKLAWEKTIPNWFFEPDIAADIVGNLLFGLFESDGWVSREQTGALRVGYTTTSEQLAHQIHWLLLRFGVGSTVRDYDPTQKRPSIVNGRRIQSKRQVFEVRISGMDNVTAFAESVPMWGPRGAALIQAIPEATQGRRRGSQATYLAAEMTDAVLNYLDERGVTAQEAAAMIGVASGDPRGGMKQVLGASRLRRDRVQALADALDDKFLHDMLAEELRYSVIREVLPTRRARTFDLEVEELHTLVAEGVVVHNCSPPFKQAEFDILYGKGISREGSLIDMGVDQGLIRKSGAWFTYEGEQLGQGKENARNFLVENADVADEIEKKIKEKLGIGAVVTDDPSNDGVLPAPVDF

[8] = target: T2, Sentrin-specific protease 7; experiment: inhibition of human SENP7 cleavage activity – biochemical, luminescence, SAR follow-up (AID 504497); format: functional

Structure (SMILES)	AC50 [1]	IC50 [2]	AC50 [3]	IC50 [4]	IC50 [5]	EC50 [6]	EC50 [7]	IC50 [8]
N#Cc1c(NC(=O)CSc2nc[nH]n2)sc2c1CCCCC2	0.371 µM (active)	5.65 µM (active)	> 35 µM (active)	> 80 µM (inactive)	4.66 µM (active)	50.9 µM (active)		
COc1ccc(C(N)c2nccc3cc(OC)c(OC)cc23)cc1OC (stereo not drawn)							> 380 µM (inactive)	> 99 µM (inactive)
